The source of these data is ChEMBL document CHEMBL1201862, “PubChem BioAssay data set” (2004).

Holding throughout (assay): growth of human tumour cells (NCI), 48 h
The subject of assay [1] is A498.
In assay [2] the test system is A549.
Assay [3] concerns COLO 205.
Assay [4] has as its system EKVX.
Assay [5] relates to HOP-62.
Assay [6] concerns LOX IMVI.
Assay [7] concerns MDA-MB-231.
For assay [8], the system named is NCI-H226.
In assay [9] the test system is NCI-H23.
Assay [10] relates to OVCAR-5.
Assay [11] deals with OVCAR-8.
The subject of assay [12] is RXF 393.
Assay [13] has as its system SF-268.
The test system of assay [14] is SK-OV-3.
Assay [15] relates to SNB-19.
Assay [16] relates to SNB-75.
In assay [17] the test system is SW-620.
Assay [18] relates to UACC-62.
The test system of assay [19] is UO-31.
For assay [20], the system named is SF-539.

Structures are written as SMILES.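 Cultured in 96-well plates, cells were exposed to test compound for 48 hours across five concentrations. GI50: concentration for 50% inhibition of growth.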 Active and inactive are the calls of the source. Rule as the data show it: active = GI50 up to about 1.1 µM and inactive = higher.

Turning to `COc1ccc2c(c1)c(=Cc1ccc(N(C)C)cc1)c1cc(-c3ccccc3)[n+](C)n12`, the GI50 was 1.33 µM (inactive) in assay [1]; 0.643 µM (active) in [2]; 0.0246 µM (active) in [3]; 0.255 µM (active) in [4]; 1.36 µM (inactive) in assay [5]; 0.374 µM (active) in [6]. Further, the GI50 in assay [7] is 0.274 µM (active); in assay [8] it was 0.15 µM (active); in [9], 0.0592 µM (active); in assay [10] it was 0.875 µM (active); in [11], 0.154 µM (active); in [12] it was 0.41 µM (active). The GI50 was 0.226 µM (active) in assay [13]; 0.447 µM (active) in [14]; 0.282 µM (active) in [15]; 0.00269 µM (active) in assay [16]; 0.377 µM (active) in assay [17]; 0.698 µM (active) in assay [18]. In addition, in assay [19], the GI50 was 0.596 µM (active).

On to `N#Cc1c2c(c(Nc3ccc(F)cc3)n3c1nc1ccccc13)CCCC2`, for which the GI50 was > 100 µM (inactive) in assay [1]; 97.9 µM (inactive) in assay [2]; > 22.1 µM (inactive) in assay [3]; > 100 µM (inactive) in assay [4]; 29.1 µM (inactive) in assay [5]; > 100 µM (inactive) in [7]. For the same molecule, the GI50 in [8] is > 80 µM (inactive); in assay [9] it was > 100 µM (inactive); in [10], > 100 µM (inactive); in assay [11], > 67.3 µM (inactive); in assay [12], 24 µM (inactive); in assay [13], > 100 µM (inactive). Moreover, the GI50 in assay [20] is > 55.5 µM (inactive); in assay [14] it was 97.9 µM (inactive); in [15] it was 26.7 µM (inactive); in assay [16] it was 45.7 µM (inactive); in assay [17], > 54 µM (inactive); in [18], > 100 µM (inactive). The GI50 in assay [19] was > 38.9 µM (inactive).

As for `CC(C)(C)OC(=O)NCCC(=O)NC1(c2cc3ccccc3s2)CCCCC1`, the GI50 in assay [1] was 22.9 µM (inactive); in assay [2], 15.9 µM (inactive); in assay [3] it was 17.5 µM (inactive); in [4], 20.9 µM (inactive); in assay [5] it was 18.4 µM (inactive); in [6], 18.2 µM (inactive). Also, the GI50 in assay [7] was 19.1 µM (inactive); in [8] it was 21.3 µM (inactive); in assay [9], 15.5 µM (inactive); in assay [10], 19.7 µM (inactive); in [11], 17.5 µM (inactive); in [12] it was 12.8 µM (inactive). In addition, the GI50 is 15 µM (inactive) in assay [20]; 24.4 µM (inactive) in assay [14]; 17.4 µM (inactive) in assay [15]; 17.4 µM (inactive) in [16]; 22.6 µM (inactive) in assay [17]; 20.6 µM (inactive) in assay [18]. In addition, the GI50 in [19] was 16.1 µM (inactive).

As to `CC(C)(C)[Si](C)(C)OC1(CCc2ccccc2OS(=O)(=O)C(F)(F)F)CCCC=C1COCc1ccccc1` (stereo unspecified), the GI50 in [1] is 66.4 µM (inactive); in [2], 0.325 µM (active); in assay [3] it was 5.85 µM (inactive); in assay [4], > 100 µM (inactive); in [5] it was > 100 µM (inactive); in assay [6] it was 4.31 µM (inactive). Also, the GI50 in assay [7] was > 100 µM (inactive); in assay [8], 46.1 µM (inactive); in assay [9], 9.62 µM (inactive); in assay [12] it was 48.2 µM (inactive); in assay [20], > 100 µM (inactive); in assay [14], > 100 µM (inactive). Also, the GI50 in [16] is 8.61 µM (inactive); in assay [17], 58.1 µM (inactive); in assay [18], 29.5 µM (inactive).

For the molecule `COc1ccc(NC(C)=O)cc1N1C(=O)/C(=C\c2cc(OC)c(OC)c(OC)c2)S(=O)(=O)C1c1ccccc1` (stereo unspecified), the GI50 in [1] is > 100 µM (inactive); in [2], 61.7 µM (inactive); in [3], 39 µM (inactive); in assay [4] it was 23.5 µM (inactive); in assay [5], 78.2 µM (inactive); in assay [6] it was 68.1 µM (inactive). The GI50 is 74.3 µM (inactive) in assay [7]; 26.5 µM (inactive) in [8]; 71.4 µM (inactive) in assay [9]; 23.5 µM (inactive) in [10]; 59.4 µM (inactive) in [11]; 74.6 µM (inactive) in assay [12]. For the same molecule, the GI50 in assay [20] was > 100 µM (inactive); in [14] it was > 100 µM (inactive); in assay [15], > 100 µM (inactive); in assay [16], 39 µM (inactive); in [17], 50.4 µM (inactive); in assay [18], 65.6 µM (inactive). Also, in assay [19], the GI50 was 38.7 µM (inactive).

With `O=C1OCc2c1cc1cc3c(cc1c2-c1ccc2c(c1)OCO2)OCO3.O=C1OCc2cc3cc4c(cc3c(-c3ccc5c(c3)OCO5)c21)OCO4`, the GI50 in assay [1] is 24.7 µM (inactive); in [3] it was 5.79 µM (inactive); in [5], 6.31 µM (inactive); in assay [6], 14.2 µM (inactive); in [7], 2.12 µM (inactive); in assay [8] it was 9.77 µM (inactive). For the same molecule, the GI50 is 28.8 µM (inactive) in assay [9]; 21 µM (inactive) in assay [10]; 13.5 µM (inactive) in assay [11]; 5.73 µM (inactive) in assay [12]; 17.8 µM (inactive) in [14]; 30 µM (inactive) in assay [15]. Also, the GI50 in [16] is 10 µM (inactive); in [17] it was 4.51 µM (inactive); in [18], 8.55 µM (inactive); in assay [19], 14 µM (inactive).

On to `NCc1ccc(-c2ccc(-c3ccc(-c4ccc(CN)s4)s3)s2)s1`, for which the GI50 in assay [1], in assay [2], in assay [3], in assay [4], in assay [5] and in assay [6] was > 100 µM (inactive) throughout. For the same molecule, the GI50 in [7], in [8], in [9], in [10], in assay [11] and in assay [12] was > 100 µM (inactive) throughout. The GI50 in [20], in assay [14], in [15], in assay [16], in assay [17] and in assay [18] was > 100 µM (inactive) throughout. The GI50 in [19] was > 100 µM (inactive).

In the case of `CC(=O)Nc1cc2c3c(c1)CCCN3CCC2`, the GI50 is > 100 µM (inactive) in assay [1]; > 100 µM (inactive) in [2]; > 100 µM (inactive) in assay [3]; 64.9 µM (inactive) in assay [4]; > 100 µM (inactive) in [6]; > 100 µM (inactive) in assay [7]. The GI50 in assay [8], in [9], in assay [10], in assay [11], in [12] and in assay [20] was > 100 µM (inactive) in each case. The GI50 in [14] was > 100 µM (inactive); in [15] it was > 100 µM (inactive); in [16] it was 65.5 µM (inactive); in assay [17] it was > 100 µM (inactive); in assay [18], > 100 µM (inactive); in assay [19], > 100 µM (inactive).

For the molecule `Cc1ccc(/C=N/n2c(Cc3ccccc3)n[nH]c2=O)cc1`, the GI50 in [1] was > 100 µM (inactive); in [2], > 100 µM (inactive); in assay [3] it was > 100 µM (inactive); in [4] it was > 100 µM (inactive); in assay [5] it was 37.2 µM (inactive); in assay [6] it was > 100 µM (inactive). Moreover, the GI50 in assay [7], in [8], in assay [9], in [10], in assay [11] and in assay [12] was > 100 µM (inactive) each time. Also, the GI50 in assay [13] is > 100 µM (inactive); in assay [20], > 100 µM (inactive); in [15], > 100 µM (inactive); in assay [16], 40.2 µM (inactive); in assay [17] it was > 100 µM (inactive); in [19] it was > 100 µM (inactive).

With `C=C1C[C@@H]2CC[C@@]34CC5O[C@H]6C(O[C@H]7CC[C@H](CC(=O)O[C@@H]8[C@@H](C)[C@@H]9O[C@@H]%10C[C@]%11(C[C@@H]%12O[C@]%13(C[C@H](C)[C@@H]%14O[C@@H]%15CC(C(COC(C)=O)OC(C)=O)O[C@@H]%15C[C@@H]%14O%13)C[C@H](C)[C@@H]%12O%11)O[C@@H]%10C[C@@H]9O[C@H]8CC8O[C@@H](CC[C@@H]1O2)C[C@@H](C)C8(O)CO)O[C@@H]7[C@@H]6O3)[C@H]5O4` (stereo partly specified), the GI50 in [1] was > 0.597 µM (active); in assay [2] it was 0.413 µM (active); in assay [3], 0.311 µM (active); in assay [4], > 0.923 µM (active); in assay [5], > 1 µM (active); in assay [6], 0.432 µM (active). Besides, the GI50 in assay [7] is > 0.776 µM (active); in assay [8], 0.45 µM (active); in assay [9], 0.264 µM (active); in assay [10], > 1 µM (active); in [11] it was 0.668 µM (active); in [12], 0.0359 µM (active). Moreover, the GI50 was 0.455 µM (active) in assay [13]; > 1 µM (active) in assay [14]; 0.701 µM (active) in assay [15]; 0.336 µM (active) in [16]; 0.6 µM (active) in [17]; 0.242 µM (active) in [18]. Besides, the GI50 in assay [19] was > 0.805 µM (active).
